# Test results as given in US9546150B2, “Substituted quinazolin-4-ones for inhibiting ubiquitin specific protease 7” (HYBRIGENICS SA, priority 2011, dated 2017).
# Experiments:
# UCH-L1 = biological target: T1, UCH-L1 (Homo sapiens, UniProt P09936); test: UCH-L1 activity assay, Ub-AMC substrate; type: biochemical; conditions: UbAMC substrate 300 nM, UCH-L1 2.5 nM
# T1 sequence (P09936 1-223): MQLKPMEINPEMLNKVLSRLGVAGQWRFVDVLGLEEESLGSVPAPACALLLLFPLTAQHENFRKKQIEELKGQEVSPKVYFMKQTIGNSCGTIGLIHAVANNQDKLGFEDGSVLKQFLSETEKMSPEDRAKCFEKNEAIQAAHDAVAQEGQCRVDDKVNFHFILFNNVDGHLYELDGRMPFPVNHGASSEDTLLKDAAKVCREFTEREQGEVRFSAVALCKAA
# Procedure: UCH-L1 was diluted in USP buffer (50 mM Tris HCl; 0.5 mM EDTA; 5 mM DTT (Dithiothreitol); 0.01% Triton X-100; Bovine Serum Albumin 0.05 mg·ml^−1 pH7.6). Compounds stocks (100 mM) were stored at −20° C. in DMSO. Compounds were tested at different concentrations: from 200 μM to 91 nM.
# (§1) Reactions were performed as duplicates in Black 384 well plates (small volume microplates; Greiner; 10 μl final reaction volume). The substrate concentration for UCH-L1 was 300 nM Ub-AMC (Boston Biochem). The concentration of the enzyme (UCH-L1) in specificity assays was 2.5 nM. The concentrations were determined in order to perform specificity assays under initial velocities at fixed substrate concentration. Compounds were pre-incubated with enzymes for 30 minutes at 25° C. Reactions were initiated by addition of substrate to the plates containing the enzymes (+/− compounds) diluted in assay buffer. Reactions were incubated for 60 minutes at 37° C. Reactions were stopped by adding acetic acid (100 mM final). Readings were performed on a Pherastar Fluorescent Reader (BMG). λ Emission 380 nm; λ Excitation=460 nm.
# USP8 = biological target: T2, USP8 (Homo sapiens, UniProt P40818); test: USP8 activity assay, Ub-AMC substrate; type: biochemical; set-up: His tag (pFastBac-HT vector); made in house; host or cells: Sf9 or High Five insect cells, baculovirus; conditions: UbAMC substrate 300 nM, USP8 1.36 nM
# T2 sequence (P40818 1-1118): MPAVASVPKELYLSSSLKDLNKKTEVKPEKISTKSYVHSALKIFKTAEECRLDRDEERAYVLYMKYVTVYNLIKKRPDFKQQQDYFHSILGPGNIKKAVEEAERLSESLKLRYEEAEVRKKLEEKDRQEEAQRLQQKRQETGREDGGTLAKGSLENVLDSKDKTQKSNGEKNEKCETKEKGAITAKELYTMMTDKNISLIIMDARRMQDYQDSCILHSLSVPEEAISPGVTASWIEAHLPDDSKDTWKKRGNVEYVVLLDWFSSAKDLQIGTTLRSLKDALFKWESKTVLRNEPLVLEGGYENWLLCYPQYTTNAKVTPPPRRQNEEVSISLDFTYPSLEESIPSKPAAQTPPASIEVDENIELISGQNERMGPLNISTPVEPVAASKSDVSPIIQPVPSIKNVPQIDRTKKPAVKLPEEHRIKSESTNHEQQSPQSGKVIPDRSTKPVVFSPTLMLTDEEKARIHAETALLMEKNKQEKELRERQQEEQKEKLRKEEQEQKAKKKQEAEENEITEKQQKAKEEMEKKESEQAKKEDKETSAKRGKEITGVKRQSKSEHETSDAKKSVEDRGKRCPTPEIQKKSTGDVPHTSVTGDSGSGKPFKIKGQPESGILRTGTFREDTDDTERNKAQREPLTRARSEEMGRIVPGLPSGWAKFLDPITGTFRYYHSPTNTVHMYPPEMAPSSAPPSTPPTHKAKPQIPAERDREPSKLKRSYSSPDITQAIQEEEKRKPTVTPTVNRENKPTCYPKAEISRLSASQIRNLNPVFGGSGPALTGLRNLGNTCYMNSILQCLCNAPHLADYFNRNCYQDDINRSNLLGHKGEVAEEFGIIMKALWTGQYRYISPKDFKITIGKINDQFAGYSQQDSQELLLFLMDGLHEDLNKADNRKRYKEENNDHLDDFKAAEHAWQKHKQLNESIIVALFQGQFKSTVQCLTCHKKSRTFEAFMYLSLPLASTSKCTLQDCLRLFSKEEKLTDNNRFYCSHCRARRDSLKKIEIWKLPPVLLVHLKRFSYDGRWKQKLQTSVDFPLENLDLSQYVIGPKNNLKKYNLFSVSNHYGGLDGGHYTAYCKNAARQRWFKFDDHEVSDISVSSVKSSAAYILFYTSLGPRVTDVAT
# Procedure: USP8 was diluted in USP buffer (50 mM Tris HCl; 0.5 mM EDTA; 5 mM DTT; 0.01% Triton X-100; Bovine Serum Albumin 0.05 mg·ml^−1 pH8.8). Compounds stocks (100 mM) were stored at −20° C. in DMSO.
# as §1, with “USP8” for “UCH-L1”, “The concentration of the enzyme (UCH-L1) in specificity assays was 2.5 nM.” left out, “nm:” for “nm;”
IC50 (UCH-L1),IC50 (USP8),Structure (SMILES)
> 200 µM,> 200 µM,"O=C(CCc1ccccc1)N1CCC(O)(Cn2cnc3ccccc3c2=O)CC1 [Example 1, 3-{[4-hydroxy-1-(3-phenylpropanoyl)piperidin-4-yl]methyl}-3,4-dihydroquinazolin-4-one]"
> 200 µM,,"O=C(CCc1ccccc1)N1CCC(O)(Cn2cnc3cc(Cl)ccc3c2=O)CC1 [Example 2, 7-chloro-3-{[4-hydroxy-1-(3-phenylpropanoyl)piperidin-4-yl]methyl}-3,4-dihydroquinazolin-4-one]"
> 200 µM,> 200 µM,"O=C(CCC1CCCC1)N1CCC(O)(Cn2cnc3ccccc3c2=O)CC1 [Example 3, 3-{[1-(3-cyclopentylpropanoyl)-4-hydroxypiperidin-4-yl]methyl}-3,4-dihydroquinazolin-4-one]"
> 200 µM,> 200 µM,"O=C(CCC1CCCC1)N1CCC(O)(Cn2cnc3cc(Cl)ccc3c2=O)CC1 [Example 4, 7-chloro-3-{[1-(3-cyclopentylpropanoyl)-4-hydroxypiperidin-4-yl]methyl}-3,4-dihydroquinazolin-4-one]"
> 200 µM,> 200 µM,"CC(Cc1cccs1)C(=O)N1CCC(O)(Cn2cnc3ccccc3c2=O)CC1 (stereo not shown) [Example 5, 3-({4-hydroxy-1-[2-methyl-3-(thiophen-2-yl)propanoyl]piperidin-4-yl}methyl)-3,4-dihydroquinazolin-4-one]"
> 200 µM,> 200 µM,"CC(C)C(=O)N1CCC(O)(Cn2cnc3ccccc3c2=O)CC1 [Example 6, 3-{[4-hydroxy-1-(2-methylpropanoyl)piperidin-4-yl]methyl}-3,4-dihydroquinazolin-4-one]"
> 200 µM,> 200 µM,"COc1cc2ncn(CC3(O)CCN(C(=O)C(C)C)CC3)c(=O)c2cc1OC [Example 7, 3-{[4-hydroxy-1-(2-methylpropanoyl)piperidin-4-yl]methyl}-6,7-dimethoxy-3,4-dihydroquinazolin-4-one]"
> 200 µM,> 200 µM,"CCC(CC)C(=O)N1CCC(O)(Cn2cnc3cc(Cl)ccc3c2=O)CC1 [Example 9, 7-chloro-3-{[1-(2-ethylbutanoyl)-4-hydroxypiperidin-4-yl]methyl}-3,4-dihydroquinazolin-4-one]"
> 200 µM,> 200 µM,"COc1ccccc1CCC(=O)N1CCC(O)(Cn2cnc3ccccc3c2=O)CC1 [Example 10, 3-({4-hydroxy-1-[3-(2-methoxyphenyl)propanoyl]piperidin-4-yl}methyl)-3,4-dihydroquinazolin-4-one]"
> 200 µM,> 200 µM,"CC(Cc1cccs1)C(=O)N1CCC(O)(Cn2cnc3cc(Cl)ccc3c2=O)CC1 (stereo not shown) [Example 11, 7-chloro-3-({4-hydroxy-1-[2-methyl-3-(thiophen-2-yl)propanoyl]piperidin-4-yl}methyl)-3,4-dihydroquinazolin-4-one]"
> 200 µM,> 200 µM,"O=C(CCc1cccs1)N1CCC(O)(Cn2cnc3ccccc3c2=O)CC1 [Example 12, 3-({4-hydroxy-1-[3-(thiophen-2-yl)propanoyl]piperidin-4-yl}methyl)-3,4-dihydroquinazolin-4-one]"
> 200 µM,> 200 µM,"CC(Cc1ccccc1)C(=O)N1CCC(O)(Cn2cnc3cc(Cl)ccc3c2=O)CC1 (stereo not shown) [Example 14, 3-{[1-(2-benzylpropanoyl)-4-hydroxypiperidin-4-yl]methyl}-7-chloro-3,4-dihydroquinazolin-4-one]"

Structure (SMILES),IC50 (UCH-L1),IC50 (USP8)
"CC(Cc1ccccc1)C(=O)N1CCC(O)(Cn2cnc3ccccc3c2=O)CC1 (stereo not shown) [Example 13, 3-{[1-(2-benzylpropanoyl)-4-hydroxypiperidin-4-yl]methyl}-3,4-dihydroquinazolin-4-one]",> 200 µM,> 200 µM
